Reference: article PMC7069944, “Amino acid levels determine metabolism and CYP450 function of hepatocytes and hepatoma cell lines” (Nature Communications, 2020)
“And” between values parts separate entries of the source, which are not always exact repeats. Equal entries are not always repeated. Where two headings read alike, the source gives them in different places.

Molecular target: CYP3A4 (Homo sapiens, UniProt P08684)
Method: Comparative CYP450 biotransformation studies were performed to assess functionality across a number of gold standard primary hepatocyte models. Cryopreserved PHHs were obtained from a single donor (Lonza, Breda, The Netherlands) or pooled donors (Thermo Scientific, Merelbeke, Belgium). Upon thawing, cell suspensions (0.5 million cells/ml) were prepared in WE medium using 24-well plates (0.5 ml/well) on an orbital shaker and metabolization activity was assessed following a 15 min equilibration period. Human Hepatopac® plates were obtained from Ascendance Biotechnology (Ascendance Biotechnology, Boston USA) and cultures were maintained following instructions of the provider. Spheroid cultures were generated in-house as essentially described by Bell et al.[42].
Finally, the system was re-equilibrated at 60% (A)/40% (B) for an additional 0.7 min. Total run time was 3.8 min and 2 µl aliquots were injected onto the system for analysis.
All data collection, processing, and analysis was performed with Analyst® software (v1.6.2. SCIEX).

Chain of CYP3A4 (P08684 whole entry): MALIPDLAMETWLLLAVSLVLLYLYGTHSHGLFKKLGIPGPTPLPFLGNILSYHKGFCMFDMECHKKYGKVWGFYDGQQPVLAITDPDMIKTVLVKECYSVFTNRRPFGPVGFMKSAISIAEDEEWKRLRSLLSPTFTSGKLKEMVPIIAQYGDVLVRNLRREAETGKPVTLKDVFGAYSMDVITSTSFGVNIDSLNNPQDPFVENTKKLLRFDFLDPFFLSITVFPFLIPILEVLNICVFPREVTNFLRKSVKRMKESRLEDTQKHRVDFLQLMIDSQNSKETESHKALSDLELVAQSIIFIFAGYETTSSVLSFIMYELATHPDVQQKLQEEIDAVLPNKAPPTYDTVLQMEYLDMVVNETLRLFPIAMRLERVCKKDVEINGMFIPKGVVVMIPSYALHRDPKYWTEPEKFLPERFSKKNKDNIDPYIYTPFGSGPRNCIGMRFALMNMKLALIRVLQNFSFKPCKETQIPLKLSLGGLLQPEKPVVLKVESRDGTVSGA

Compound | Stable 10H-midazolam metabolisation rate (HC6X AAGLY D40, D46) | Stable 10H-midazolam metabolisation rate (HC6X AAGLY D40, D48) | Stable 10H-midazolam metabolisation rate (HepG2 AAGLY D30, column head D40) | Stable 10H-midazolam metabolisation rate (HepG2 AAGLY D30, column head D42) | Stable 10H-midazolam metabolisation rate (HepG2 AAGLY D30, column head D46) | Stable 10H-midazolam metabolisation rate (HepG2 AAGLY D30, column head D48) | Stable 10H-midazolam metabolisation rate (HepG2 AAGLY D30, column head D50) | 1-OH midazolam formation (drug biotransformation cocktail) (HepG2 AAGLY D32) | 1-OH midazolam formation (drug biotransformation cocktail) (Hepatopac) | 1-OH midazolam formation (drug biotransformation cocktail) (PHH1)
OCc1ncc2n1-c1ccc(Cl)cc1C(c1ccccc1F)=NC2 [10H-midazolam] | 371.429 ng/h/100 000 cells and 443.182 ng/h/100 000 cells and 446.97 ng/h/100 000 cells | 353.788 ng/h/100 000 cells and 537.879 ng/h/100 000 cells and 462.121 ng/h/100 000 cells | 79.0741 ng/h/100 000 cells and 82.3438 ng/h/100 000 cells and 89.7887 ng/h/100 000 cells | 185 ng/h/100 000 cells and 122.333 ng/h/100 000 cells and 146.406 ng/h/100 000 cells | 133.654 ng/h/100 000 cells and 137.308 ng/h/100 000 cells and 133.846 ng/h/100 000 cells | 133.333 ng/h/100 000 cells and 151.667 ng/h/100 000 cells and 136.296 ng/h/100 000 cells | 105 ng/h/100 000 cells and 107.963 ng/h/100 000 cells and 103.75 ng/h/100 000 cells | – | – | –
OCc1ncc2n1-c1ccc(Cl)cc1C(c1ccccc1F)=NC2 [1-OH midazolam] | – | – | – | – | – | – | – | 5.9655 and 7.1394 and 9.0214 | 23.2481 and 33.0328 and 45.6546 | 5.4616 and 6.486
